Where “and” joins values, the source holds several entries; their conditions need not be identical. Equal entries are not always repeated. Toxic doses and inconclusive results are not listed.

These results are taken from PubChem BioAssay AID256 (DTP/NCI, 2004).

For the assay, the system named is CD2F1 mice, L1210 leukemia ip, survival T/C. The assay can be described thus: NCI In Vivo Anticancer Drug Screen. Data for tumor model L1210 Leukemia (intraperitoneal) in CD2F1 (CDF1) mice. Particulars: higher = longer survival. The gist of the method:
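Tumor-bearing mice (transplanted tumor) were split into treated and vehicle control groups, and the measured endpoint of each treated group was divided by that of its vehicle controls.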

The mark [1] stands for this setting: endpoint: mean survival time, dose: 12.5 mg/kg/injection, schedule: Q01DX009 (ip), vehicle: saline.
The mark [2] stands for this setting: endpoint: mean survival time, dose: 100.0 mg/kg/injection, schedule: Q01DX009 (ip), vehicle: saline.
The mark [3] stands for this setting: endpoint: mean survival time, dose: 200.0 mg/kg/injection, schedule: Q01DX009 (ip), vehicle: saline.
[4] abbreviates: endpoint: mean survival time, dose: 400.0 mg/kg/injection, schedule: Q01DX009 (ip), vehicle: saline.
The mark [5] stands for this setting: endpoint: mean survival time, dose: 3.12 mg/kg/injection, schedule: Q01DX009 (ip), vehicle: saline.
The mark [6] stands for this setting: endpoint: mean survival time, dose: 6.25 mg/kg/injection, schedule: Q01DX009 (ip), vehicle: saline.
The mark [7] stands for this setting: endpoint: mean survival time, dose: 100.0 mg/kg/injection, schedule: Q01DX009 (ip), vehicle: saline with Tween-80.
The mark [8] stands for this setting: endpoint: mean survival time, dose: 200.0 mg/kg/injection, schedule: Q01DX009 (ip), vehicle: saline with Tween-80.
Setting [9] is: endpoint: mean survival time, dose: 100.0 mg/kg/injection, schedule: Q04DX003 (ip), vehicle: saline with Tween-80.
Where [10] appears, read: endpoint: mean survival time, dose: 200.0 mg/kg/injection, schedule: Q04DX003 (ip), vehicle: saline with Tween-80.
The mark [11] stands for this setting: endpoint: mean survival time, dose: 400.0 mg/kg/injection, schedule: Q04DX003 (ip), vehicle: saline with Tween-80.

On to `CC1(C)OCC2OC=CC(=O)C2O1` (stereo unspecified), for which the T/C reads like this: (endpoint: median survival time, dose: 25.0 mg/kg/injection, schedule: Q01DX009 (ip), vehicle: suspension in saline) 94 % of control; (endpoint: median survival time, dose: 50.0 mg/kg/injection, schedule: Q01DX009 (ip), vehicle: suspension in saline) 103 % of control; (endpoint: median survival time, dose: 100.0 mg/kg/injection, schedule: Q01DX009 (ip), vehicle: suspension in saline) 101 % of control; (endpoint: median survival time, dose: 200.0 mg/kg/injection, schedule: Q01DX009 (ip), vehicle: suspension in saline) 97 % of control; (endpoint: median survival time, dose: 400.0 mg/kg/injection, schedule: Q01DX009 (ip), vehicle: suspension in saline) 104 % of control.

Consider `CC12CCC3C(CCC4CC(OC(=O)Cc5ccc(N(CCCl)CCCl)cc5)CCC43C)C1CCC(=O)N2` (stereo unspecified), for which the T/C was 98 % of control (endpoint: mean survival time, dose: 0.75 mg/kg/injection, schedule: Q01DX009 (ip), vehicle: saline with Tween-80); 102 % of control (endpoint: mean survival time, dose: 1.5 mg/kg/injection, schedule: Q01DX009 (ip), vehicle: saline with Tween-80); 108 % of control (endpoint: mean survival time, dose: 3.0 mg/kg/injection, schedule: Q01DX009 (ip), vehicle: saline with Tween-80); 112 % of control (endpoint: mean survival time, dose: 6.0 mg/kg/injection, schedule: Q01DX009 (ip), vehicle: saline with Tween-80); 122 % of control (endpoint: mean survival time, dose: 12.0 mg/kg/injection, schedule: Q01DX009 (ip), vehicle: saline with Tween-80); 115 % of control (endpoint: median survival time, dose: 3.0 mg/kg/injection, schedule: Q01DX009 (ip), vehicle: saline with Tween-80). Further, the T/C (endpoint: median survival time, dose: 6.0 mg/kg/injection, schedule: Q01DX009 (ip), vehicle: saline with Tween-80) was 119 % of control; the T/C (endpoint: median survival time, dose: 24.0 mg/kg/injection, schedule: Q01DX009 (ip), vehicle: saline with Tween-80) is 166 % of control and 168 % of control; the T/C (endpoint: median survival time, dose: 48.0 mg/kg/injection, schedule: Q01DX009 (ip), vehicle: saline with Tween-80) is 98 % of control and 111 % of control.

Consider `CCCC(=O)Nc1ncnc2c1ncn2C1OC2COP(=O)(O)OC2C1OC(=O)CCC` (stereo unspecified), for which the T/C is 109 % of control under setting [1]; 98 % of control (endpoint: mean survival time, dose: 12.5 mg/kg/injection, schedule: Q01DX009 (ip), vehicle: suspension in saline); 97 % of control (endpoint: mean survival time, dose: 25.0 mg/kg/injection, schedule: Q01DX009 (ip), vehicle: saline); 100 % of control (endpoint: mean survival time, dose: 25.0 mg/kg/injection, schedule: Q01DX009 (ip), vehicle: suspension in saline); 98 % of control (endpoint: mean survival time, dose: 50.0 mg/kg/injection, schedule: Q01DX009 (ip), vehicle: saline); 100 % of control (endpoint: mean survival time, dose: 50.0 mg/kg/injection, schedule: Q01DX009 (ip), vehicle: suspension in saline). Moreover, the T/C is, setting by setting: under setting [2], 101 % of control; (endpoint: mean survival time, dose: 100.0 mg/kg/injection, schedule: Q01DX009 (ip), vehicle: suspension in saline) 105 % of control; under setting [3], 98 % of control; (endpoint: mean survival time, dose: 200.0 mg/kg/injection, schedule: Q01DX009 (ip), vehicle: suspension in saline) 94 % of control; under setting [4], 103 % of control; (endpoint: mean survival time, dose: 400.0 mg/kg/injection, schedule: Q01DX009 (ip), vehicle: suspension in saline) 115 % of control.

Regarding `ClCC[Se](Cl)(Cl)c1ccccc1`, the T/C is 96 % of control and 110 % of control (endpoint: mean survival time, dose: 0.78 mg/kg/injection, schedule: Q01DX009 (ip), vehicle: saline); 108 % of control (endpoint: mean survival time, dose: 1.56 mg/kg/injection, schedule: Q01DX009 (ip), vehicle: saline); 108 % of control and 112 % of control under setting [5]; 115 % of control and 122 % of control under setting [6].

Consider `O=C1CCCCCC2CC12` (stereo unspecified), for which the T/C runs as follows: under setting [7], 94 % of control; under setting [8], 102 % of control; (endpoint: mean survival time, dose: 400.0 mg/kg/injection, schedule: Q01DX009 (ip), vehicle: saline with Tween-80) 94 % of control.

Regarding `CN1CC(NC(=O)N(CCCl)N=O)CC2c3cccc4[nH]cc(c34)CC21` (stereo unspecified), the T/C reads like this: (endpoint: mean survival time, dose: 12.5 mg/kg/injection, schedule: Q01DX001 (ip), vehicle: other) 119 % of control; (endpoint: mean survival time, dose: 50.0 mg/kg/injection, schedule: Q01DX001 (ip), vehicle: other) 154 % of control; (endpoint: mean survival time, dose: 100.0 mg/kg/injection, schedule: Q01DX001 (ip), vehicle: other) 248 % of control; (endpoint: mean survival time, dose: 200.0 mg/kg/injection, schedule: Q01DX001 (ip), vehicle: other) 390 % of control; (endpoint: mean survival time, dose: 400.0 mg/kg/injection, schedule: Q01DX001 (ip), vehicle: other) 98 % of control.

Regarding `O=[N+]([O-])c1cc2c(c([N+](=O)[O-])c1)OCOC2`, the T/C was 105 % of control under setting [7] and 96 % of control under setting [8].

For `O=C(c1ccccc1)C1CC1C(=O)c1ccccc1` (stereo unspecified), the T/C by setting is: (endpoint: mean survival time, dose: 100.0 mg/kg/injection, schedule: Q04DX002 (ip), vehicle: saline with Tween-80) 100 % of control; (endpoint: mean survival time, dose: 200.0 mg/kg/injection, schedule: Q04DX002 (ip), vehicle: saline with Tween-80) 112 % of control; (endpoint: mean survival time, dose: 400.0 mg/kg/injection, schedule: Q04DX002 (ip), vehicle: saline with Tween-80) 100 % of control.

Take `O=C(O)c1ccccc1C(=O)N1CCCCC1`: the T/C (endpoint: mean survival time, dose: 12.5 mg/kg/injection, schedule: Q04DX002 (ip), vehicle: saline with Tween-80) is 94 % of control; the T/C (endpoint: mean survival time, dose: 25.0 mg/kg/injection, schedule: Q04DX002 (ip), vehicle: saline with Tween-80) was 90 % of control; the T/C (endpoint: mean survival time, dose: 50.0 mg/kg/injection, schedule: Q04DX002 (ip), vehicle: saline with Tween-80) was 110 % of control.

Take `CC(=O)NN1C(=O)c2ccccc2C1=O`: the T/C (endpoint: mean survival time, dose: 100.0 mg/kg/injection, schedule: Q04DX003 (ip), vehicle: Klucel (hydroxypropylcellulose) (HPC)) is 98 % of control; the T/C (endpoint: mean survival time, dose: 200.0 mg/kg/injection, schedule: Q04DX003 (ip), vehicle: Klucel (hydroxypropylcellulose) (HPC)) is 98 % of control; the T/C (endpoint: mean survival time, dose: 400.0 mg/kg/injection, schedule: Q04DX003 (ip), vehicle: Klucel (hydroxypropylcellulose) (HPC)) is 98 % of control.

Consider `Cc1ncc(CNC(=O)N(CCCl)N=O)c(N)n1`, for which the T/C runs as follows: under setting [5], 159 % of control; (endpoint: mean survival time, dose: 3.13 mg/kg/injection, schedule: Q01DX009 (ip), vehicle: saline with Tween-80) 180 % of control; (endpoint: mean survival time, dose: 6.25 mg/kg/injection, schedule: Q01DX009 (ip), vehicle: saline with Tween-80) 195 % of control; under setting [6], 236 % of control; (endpoint: mean survival time, dose: 12.5 mg/kg/injection, schedule: Q01DX009 (ip), vehicle: saline with Tween-80) 357 % of control; under setting [1], 288 % of control. For the same molecule, the T/C is, setting by setting: (endpoint: mean survival time, dose: 17.5 mg/kg/injection, schedule: Q04DX002 (ip), vehicle: saline) 337 % of control; (endpoint: mean survival time, dose: 25.0 mg/kg/injection, schedule: Q01DX009 (ip), vehicle: saline with Tween-80) 220 % of control; (endpoint: mean survival time, dose: 35.0 mg/kg/injection, schedule: Q04DX002 (ip), vehicle: saline) 316 % of control.

Consider `C1CCC(CCC2CCCC[N-]2)[N-]C1.[I][Co][I]` (stereo unspecified), for which the T/C by setting is: (endpoint: mean survival time, dose: 25.0 mg/kg/injection, schedule: Q01DX001 (ip), vehicle: saline with Tween-80) 95 % of control; (endpoint: mean survival time, dose: 50.0 mg/kg/injection, schedule: Q01DX001 (ip), vehicle: saline with Tween-80) 86 % of control; (endpoint: mean survival time, dose: 100.0 mg/kg/injection, schedule: Q01DX001 (ip), vehicle: saline with Tween-80) 123 % of control; (endpoint: mean survival time, dose: 100.0 mg/kg/injection, schedule: Q01DX001 (ip), vehicle: saline) 103 % of control.

Turning to `ClC=P(c1ccccc1)(c1ccccc1)c1ccccc1`, the T/C runs as follows: under setting [7], 96 % of control; under setting [8], 92 % of control.

On to `CC(=O)CCC(=O)OC1CCCCC1`, for which the T/C was 102 % of control under setting [9], 97 % of control under setting [10] and 97 % of control under setting [11].

With `NC(=O)c1[nH]cnc1/N=N/N(CCO)Cc1ccccc1`, the T/C was 98 % of control under setting [9], 95 % of control under setting [10] and 95 % of control under setting [11].

As to `OC1c2ccccc2-c2ccccc21`, the T/C is 88 % of control under setting [2], 88 % of control under setting [3] and 87 % of control under setting [4].

In the case of `O=C(O)c1cc([N+](=O)[O-])ccc1Br`, the T/C reads like this: under setting [9], 103 % of control; under setting [10], 105 % of control; under setting [11], 95 % of control.
